Molecular target: T1, Kinesin-like protein KIF11 (Homo sapiens, UniProt P52732)
T1 sequence (P52732 whole entry): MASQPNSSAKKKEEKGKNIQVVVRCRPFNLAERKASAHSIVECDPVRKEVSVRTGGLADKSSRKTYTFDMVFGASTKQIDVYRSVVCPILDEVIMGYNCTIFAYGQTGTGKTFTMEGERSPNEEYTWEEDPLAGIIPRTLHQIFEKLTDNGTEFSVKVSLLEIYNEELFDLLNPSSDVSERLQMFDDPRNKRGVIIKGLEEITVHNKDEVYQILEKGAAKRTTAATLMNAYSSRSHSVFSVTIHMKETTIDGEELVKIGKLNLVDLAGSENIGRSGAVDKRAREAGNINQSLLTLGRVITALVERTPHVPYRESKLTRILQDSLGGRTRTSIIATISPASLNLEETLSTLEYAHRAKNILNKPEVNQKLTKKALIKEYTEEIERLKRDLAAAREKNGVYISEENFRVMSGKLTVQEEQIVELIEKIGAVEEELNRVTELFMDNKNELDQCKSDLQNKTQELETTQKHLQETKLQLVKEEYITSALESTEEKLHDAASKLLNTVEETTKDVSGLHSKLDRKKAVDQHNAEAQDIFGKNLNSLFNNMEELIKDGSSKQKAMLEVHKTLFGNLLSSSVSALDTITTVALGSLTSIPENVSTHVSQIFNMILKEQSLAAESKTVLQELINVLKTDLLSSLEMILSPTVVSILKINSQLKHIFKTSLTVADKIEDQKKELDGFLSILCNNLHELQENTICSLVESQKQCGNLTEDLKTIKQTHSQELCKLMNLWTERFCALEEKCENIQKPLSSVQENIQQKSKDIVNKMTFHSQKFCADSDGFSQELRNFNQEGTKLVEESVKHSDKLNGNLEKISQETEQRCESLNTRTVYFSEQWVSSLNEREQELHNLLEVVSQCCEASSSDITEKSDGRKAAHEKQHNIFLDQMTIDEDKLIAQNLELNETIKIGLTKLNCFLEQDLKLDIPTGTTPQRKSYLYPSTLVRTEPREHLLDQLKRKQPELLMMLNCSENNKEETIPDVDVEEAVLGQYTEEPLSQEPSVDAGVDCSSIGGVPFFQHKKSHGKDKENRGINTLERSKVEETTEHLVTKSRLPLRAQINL
Test: In Vitro Assay: This example provides a representative in vitro assay for determining KSP activity in vitro. Purified microtubules obtained from bovine brain were purchased from Cytoskeleton Inc. (Denver, Colo., USA). The motor domain of human KSP (Eg 5, KNSL1) was cloned, expressed, and purified to greater than 95% homogeneity. Biomol Green was purchased from Affinity Research Products Ltd. (Matford Court, Exeter, Devon, United Kingdom). Microtubules and KSP motor protein (i.e., the KSP motor domain) were diluted in assay buffer (20 mM Tris-HCl (pH 7.5), 1 mM MgCl2, 10 mM DTT and 0.25 mg/mL BSA) to a final concentration of 35 μg/mL microtubules and 45 nM KSP. The microtubule/KSP mixture was then pre-incubated at 37 C. for 10 min to promote the binding of KSP to microtubules.

C[C@H](O)C(=O)N(CC[C@H](N)CF)[C@H](c1nc(-c2cc(F)ccc2F)sc1Cc1ccccc1)C(C)(C)C
IC50: 0.216 µM
